# What was measured:
# Assay type in all cases: in vivo
# [1] = tested on: Lólium perénne; assay: TLC plant biomarker pattern after herbicide spraying (greenhouse)
# [2] = tested on: Anagallis arvensis; assay: as above
# Protocol: (§1) The experiments were performed in the green-house at the National Environmental Research Institute, Silkeborg, Denmark. All the seeds needed light to germinate, and were sown at the soil surface in individual 11 cm pots. The soil used during the experiments contained: (SM Growing Mould (Growing medium by special soil (sphagnum) added clay granulate), 0-30 mm; grade of turnover 55-75; added per m^3: 3 kg lime (white chalk), 1.5 kg dolit chalk, 40 kg clay granulate; Fertilizer added granulate: NO3-N: 55.0 g; NH4-N: 65.0 g; P: 106.6 g; K: 224.0 g; Mg: 22 g; Micro nutrients added in chelate form, Mo in uorganic form: B-Boron: 1 g; Cu-copper: 6 g; Mn-Manganese: 3 g; Zinc-Zn: 3 g: Fe-iron: 6 g; Mo- molybdenum: 1.4 g).
# (§2) During the experiments plants were watered from below, and the temperature in the green-house was maintained between 15° C. and 25° C. with variations due to external weather, and the photoperiod was 16th daylight. The green-house is divided into different units, which allowed for the separate maintenance of the control plants from the sprayed plants to avoid undesirable effects due to vapour drift.
# (§3) Glyphosate (Roundup Bio (360 g L^−1) was supplied by Monsanto Denmark A/S. Recommended field dose=1,44 kg a.i. ha^−1. In all the experiments, an automatic sprayer (designed in Denmark by Jens Kristensen 1994) was used where the herbicide application is achieved by moving boom equipment with two ordinary hydraulic flat fan nozzles (Hardi 4110-16). Two pots per spray event were placed in the middle of the spray chamber at 50 cm distance from the nozzle, delivering 200 L of water per-hectare with a desired herbicide concentration (working pressure 2 bars; speed of spray boom=4.7 km h^−1). The spraying was performed starting with the lowest concentration first, progressing towards the highest concentration. Between each herbicide, the sprayer was thoroughly rinsed several times with water. The control plants were sprayed with water.
# (§4) The fresh plant material was pressed using a hand press. The extract was immediately centrifuged. (3000 rpm) for 10 minutes. The supernatant was used for analysis. The extracts were kept cool or right above 0° C. during the test to avoid decomposition of biomarkers.
# (§5) Freeze-dried plant material was crushed and 250 mg was extracted with 5.00 ml 75% ethanol in an ultrasonic bath for 2 hours. The temperature was kept <0° C. (using ice) during the extraction to avoid decomposition of biomarkers. The extract was centrifuged (3000 rpm) for 10 minutes. The supematant was used for analysis and were kept cool during the test to avoid decomposition of biomarkers.
# (§6) The two extracts (freshtfresh ethanol) were applicated immediately on a TLC plate (10 μl on both TLC-Plate types (see below) using cool air-drying. The 75% ethanolic extract was applicated 10 μl on Silica-gel TLC-plates and 5 μl on Cellulose TLC-plates (see below). The fresh/fresh ethanolic extractsare recommended to perform if fresh plant material are to be analysed (field-test). The freeze-dried or frozen plant material extraction Is recommended if the analysis are performed in the laboratory.
# […] Derivatisation: Stock solution 1:50% sulfuric acid in 96% ethanol; Stock solution 2: 2% vanillin in absolut alcohol; Derivatisation-solvent, Fresh produced before us, stock solution 1 and stock solution 2 (1:10); Aftercare: 120° C. in 2-3 min. The plate is valuated visually. The system detects higher alcoholics, phenolic compounds, steroids and etheric oils (Stahl 1969), terpenoids, phenyl propanolds, phenolic compounds (Wagner etea. 1984)
# TLC-System 7: HPTLC-Alufolie Silica Gel 60 F2u, Merck 1.05548 (10×10 cm); 10 μl plant extracts plants exposed to glyphosate and control plants; eluted in n-butanol: acetic acid: water (4:1:5) (upper phase after 5 minutes shaking). Derivatisation: 0,5 g p-anisaldehyde diluted in 10 ml conc. acetic acid and 85 ml absolute alcohol is and 5 ml conc. sulfuric acid (added in the following row). The plate is heated to. […]
# [3] = tested on: Lólium perénne; assay: as above; details: TLC 1 (non-specific compounds)
# Protocol: as §1, §2, §3, §4, §5, §6
# (§7) TLC-System 1: HPTLC-Alufolie Silica Gel 60 F254, Merck 1.05548 (10×10 cm); 10 μl plant extracts plants exposed to glyphosate and control plants; eluted in n-butanol acetic acid: water (4:1:5) (upper phase after 5 minutes shaking). Derivatisation: Stock solution 1:50% sulfuric acid in 96% ethanol; Stock solution 2: 2% vanillin in absolut alcohol; Derivatisation-solvent, Fresh produced before us, stock solution 1 and stock solution 2 (1:10); Aftercare: 120° C. in 2-3 min. The plate is valuated visually. The system detects higher alcoholics, phenolic compounds, steroids and etheric oils (Stahl 1969), terpenoids, phenyl propanolds, phenolic compounds (Wagner etea. 1984) […]
# [4] = tested on: Centauréa cýanus; assay: as above
# [5] = tested on: Lólium perénne; assay: Visual effect rating (0-9) after herbicide spraying
# From the text: (§8) Four, eight, sixteen and thirty two days after spraying, visual effects on plants were noted before harvest, using the rating chart described in Hamil. et al. (1977) and Boutin et al. (1993); a rating of zero indicates full growth and vigour, and a rating of nine indicates no growth/mortality.
# (§9) The min. visual effect (VE) of the presence of plant biomarkers is rated as described by Hamil et al., (1977) and Boutin et al. (1993).
# [6] = tested on: Centauréa cýanus; assay: as above
# From the text: as §8, §9
# [7] = tested on: Anagallis arvensis; assay: as above; details: at presence of TLC 7 biomarker
# From the text: as §8, §9
# [8] = tested on: Plantágo lanceoláta; assay: as above
# From the text: as §8, §9
# [9] = tested on: Plantágo lanceoláta; assay: TLC plant biomarker pattern after herbicide spraying (greenhouse)
# Protocol: as §1, §2, §3, §4, §5, §6, §7
# [10] = at presence of TLC 4d biomarker
Compound,Min. of label dose of herbicide with effect ([1]; TLC 6 (lipids and terpens)) [%],Min. of label dose of herbicide with effect ([2]; TLC 7 (non-specific compounds)) [%],Min. of label dose of herbicide with effect ([4]; TLC 2 (phenolic compounds)) [%],Min. of label dose of herbicide with effect ([4]; TLC 7 (non-specific compounds)) [%],Min. visual effect ([5]; at presence of TLC 7 biomarker),"Min. visual effect [5, 10]",Min. visual effect [7],Min. visual effect ([8]; at presence of TLC 2 biomarker),Min. visual effect ([8]; at presence of TLC 6 biomarker),Min. of label dose of herbicide with effect ([1]; TLC 7 (non-specific compounds)) [%],Min. of label dose of herbicide with effect ([9]; TLC 2 (phenolic compounds)) [%],Min. of label dose of herbicide with effect ([9]; TLC 6 (lipids and terpens)) [%],Min. of label dose of herbicide with effect ([9]; TLC 4d (amino acids)) [%],Min. of label dose of herbicide with effect ([4]; TLC 4d (amino acids)) [%],also measured
Bromoxynil,10,1,10,1,,,,,,,,,,,Min. of label dose of herbicide with effect ([2]; TLC 6 (lipids and terpens)): 1%; Min. of label dose of herbicide with effect [3]: 1%
COC(=O)c1ccccc1S(=O)(=O)NC(=O)Nc1nc(C)nc(OC)n1 [Metsulfuron methyl],10,1,1,1,0,0,1,0,2,10,1,10,1,1,Min. visual effect ([5]; at presence of TLC 1 biomarker): 0; Min. visual effect ([5]; at presence of TLC 6 biomarker): 0; Min. visual effect ([6]; at presence of TLC 6 biomarker): 0; Min. visual effect ([6]; at presence of TLC 7 biomarker): 0; Min. visual effect ([8]; at presence of TLC 1 biomarker): 0; Min. visual effect ([8]; at presence of TLC 7 biomarker): 3; Min. of label dose of herbicide with effect ([9]; TLC 1 (non-specific compounds)): 1%; Min. of label dose of herbicide with effect ([9]; TLC 7 (non-specific compounds)): 10%; Min. of label dose of herbicide with effect ([4]; TLC 6 (lipids and terpens)): 1%
CCC(CC)Nc1c([N+](=O)[O-])cc(C)c(C)c1[N+](=O)[O-] [Pendimethalin],,10,1,,0,0,3,0,0,1,1,1,1,1,"Min. visual effect ([6]; at presence of TLC 2 biomarker): 0; Min. visual effect [6, 10]: 0; Min. visual effect [8, 10]: 0; Days after exposure (biomarker present) ([1]; TLC 7 (non-specific compounds)): 8, 16 days; Days after exposure (biomarker present) ([1]; TLC 4d (amino acids)): 4, 8, 16, 32 days; Min. of label dose of herbicide with effect ([1]; TLC 4d (amino acids)): 1%; Min. of label dose of herbicide with effect ([2]; TLC 1 (non-specific compounds)): 10%; Min. of label dose of herbicide with effect ([2]; TLC 4d (amino acids)): 1%"
